Results published in the supplement of paper PMC10627819.

Legend:
[1] = tested on: S. aureus Newman; assay: Bliss interaction score (quartile over a dose matrix) (fitness difference); higher = more antagonism (negative = synergy)
Method in brief: (§1)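 Combination data were used to infer fitness under each single drug. Fitness is the OD595 at entry into stationary phase divided by the robust mean of the plate's no-drug wells, with a cap of 1. The Bliss score is the observed minus the expected product fitness, summarised by quartiles over technical, biological and donor/recipient replicates.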

[2] = tested on: S. aureus DSM 20231; assay: as above
Method in brief: as §1

[3] = tested on: B. subtilis 168; assay: as above
Method in brief: as §1

[4] = tested on: S. pneumoniae D39V; assay: as above
Method in brief: as §1

[5] = tested on: S. aureus Newman; assay: fitness (endpoint OD595 vs no drug) (fraction); higher = more growth
Method in brief: (§2)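 Cultures at OD595 0.01 were dispensed into 384-well plates in TSB, LB Lennox or CY and incubated at 37 °C. Every 30 min for 14 h, OD595 was read and corrected by the first reading. Fitness is the optical density at entry into stationary phase relative to the robust mean of no-drug control wells, capped at 1.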

[6] = tested on: S. aureus DSM 20231; assay: as above
Method in brief: as §2

[7] = tested on: B. subtilis 168; assay: as above
Method in brief: as §2

[8] = tested on: S. pneumoniae D39V; assay: as above
Method in brief: as §2
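Wherever Bliss interaction score (quartile over a dose matrix) is given: first quartile when negative (synergy) and third quartile when positive (antagonism).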

CCCCCCCCCC(=O)N[C@@H](Cc1c[nH]c2ccccc12)C(=O)N[C@H](CC(N)=O)C(=O)N[C@@H](CC(=O)O)C(=O)N[C@@H]1C(=O)NCC(=O)N[C@@H](CCCN)C(=O)N[C@@H](CC(=O)O)C(=O)N[C@H](C)C(=O)N[C@@H](CC(=O)O)C(=O)NCC(=O)N[C@H](CO)C(=O)N[C@@H]([C@H](C)CC(=O)O)C(=O)N[C@@H](CC(=O)c2ccccc2N)C(=O)O[C@@H]1C [Daptomycin] + Cc1onc(-c2ccccc2)c1C(=O)N[C@@H]1C(=O)N2[C@@H]1SC(C)(C)[C@@H]2C(=O)O [Oxacillin]
Details	Bliss interaction score
[1]	0.0785
[2]	-0.0408
[3]	0.0697
[4]	0.0877

fitness
Details	first compound 0.125 µg/mL	first compound 0.25 µg/mL	first compound 0.5 µg/mL	first compound 1 µg/mL	first compound 2 µg/mL	first compound 4 µg/mL
[5], partner 0.0156 µg/mL	0.863	0.82	0.785	–	–	–
[5], partner 0.0312 µg/mL	0.752	0.751	0.768	–	–	–
[5], partner 0.0625 µg/mL	0.656	0.664	0.674	–	–	–
[6], partner 0.0156 µg/mL	–	–	0.864	0.889	0.794	–
[6], partner 0.0312 µg/mL	–	–	0.768	0.716	0.721	–
[6], partner 0.0625 µg/mL	–	–	0.502	0.501	0.537	–
[7], partner 0.002 µg/mL	0.979	0.99	0.938	–	–	–
[7], partner 0.004 µg/mL	0.996	0.959	0.877	–	–	–
[7], partner 0.008 µg/mL	0.899	0.921	0.856	–	–	–
[8], partner 0.005 µg/mL	–	–	–	≥ 1	0.999	0.949
[8], partner 0.01 µg/mL	–	–	–	0.951	0.97	0.956
[8], partner 0.02 µg/mL	–	–	–	0.904	0.908	0.895
[8], partner 0.04 µg/mL	–	–	–	0.377	0.382	0.505

fitness, one replicate
Details	first compound 0.125 µg/mL	first compound 0.25 µg/mL	first compound 0.5 µg/mL	first compound 1 µg/mL
[6], partner 0.0156 µg/mL	0.728	0.737	–	–
[6], partner 0.0312 µg/mL	0.677	0.722	–	–
[6], partner 0.0625 µg/mL	0.531	0.515	–	–
[7], partner 0.0078 µg/mL	–	0.878	0.894	0.662
[7], partner 0.0155 µg/mL	–	0.975	0.87	0.657
[7], partner 0.031 µg/mL	–	0.888	0.832	0.302
[7], partner 0.075 µg/mL	0.618	0.686	0.395	–
[7], partner 0.15 µg/mL	0.0439	0.032	0.0273	–
[7], partner 0.3 µg/mL	0.0398	0.0692	0.0429	–

CCCCCCCCCC(=O)N[C@@H](Cc1c[nH]c2ccccc12)C(=O)N[C@H](CC(N)=O)C(=O)N[C@@H](CC(=O)O)C(=O)N[C@@H]1C(=O)NCC(=O)N[C@@H](CCCN)C(=O)N[C@@H](CC(=O)O)C(=O)N[C@H](C)C(=O)N[C@@H](CC(=O)O)C(=O)NCC(=O)N[C@H](CO)C(=O)N[C@@H]([C@H](C)CC(=O)O)C(=O)N[C@@H](CC(=O)c2ccccc2N)C(=O)O[C@@H]1C [Daptomycin] + O=C(O[C@@H]1Cc2c(O)cc(O)cc2O[C@@H]1c1cc(O)c(O)c(O)c1)c1cc(O)c(O)c(O)c1 [EGCG]
Details	Bliss interaction score
[1]	0.0602
[2]	-0.0959
[3]	-0.0882
[4]	0.0768

fitness
Details	partner 6.25 µg/mL	partner 12.5 µg/mL	partner 25 µg/mL	partner 50 µg/mL
[5], first compound 0.125 µg/mL	–	0.817	0.79	0.742
[5], first compound 0.25 µg/mL	–	0.828	0.815	0.754
[5], first compound 0.5 µg/mL	–	0.861	0.843	0.742
[6], first compound 0.5 µg/mL	–	0.814	0.778	0.808
[6], first compound 1 µg/mL	–	0.788	0.721	0.699
[6], first compound 2 µg/mL	–	0.728	0.736	–
[7], first compound 0.125 µg/mL	0.906	–	0.305	–
[7], first compound 0.25 µg/mL	0.895	0.719	–	–
[7], first compound 0.5 µg/mL	0.838	0.598	–	–
[8], first compound 1 µg/mL	–	0.909	0.95	–
[8], first compound 2 µg/mL	–	0.921	0.906	0.971
[8], first compound 4 µg/mL	–	–	–	0.832

[7], first compound 1 µg/mL, one replicate
Details	fitness
partner 6.25 µg/mL	0.665
partner 12.5 µg/mL	0.399
partner 25 µg/mL	0.0311

CCN(CC)CCOC(=O)c1ccc(N)cc1 [Procaine] + CC1=C\[C@@H](O)CC(=O)Cc2nc(co2)C(=O)N2CCC=C2C(=O)O[C@H](C(C)C)[C@H](C)/C=C/C(=O)NC\C=C\1 [Virginiamycin M1]
Details	Bliss interaction score
[1]	0.0179
[2]	-0.0838
[3]	-0.0324
[4]	0.036

fitness, one replicate
Details	first compound 85.5 µg/mL	first compound 171 µg/mL	first compound 342 µg/mL
[5], partner 0.0625 µg/mL	≥ 1	≥ 1	≥ 1
[5], partner 0.125 µg/mL	≥ 1	≥ 1	≥ 1
[5], partner 0.25 µg/mL	≥ 1	≥ 1	≥ 1
[5], partner 0.5 µg/mL	0.851	0.766	0.795
[5], partner 1 µg/mL	0.977	≥ 1	0.968
[5], partner 2 µg/mL	0.913	0.91	0.812
[6], partner 0.5 µg/mL	0.82	0.747	0.842
[6], partner 1 µg/mL	0.726	0.774	0.779
[8], partner 0.15 µg/mL	0.976	0.936	0.971
[8], partner 0.3 µg/mL	0.983	0.941	0.934

fitness
Details	first compound 85.5 µg/mL	first compound 171 µg/mL	first compound 342 µg/mL
[6], partner 0.0625 µg/mL	–	0.976	0.872
[6], partner 0.125 µg/mL	–	≥ 1	≥ 1
[6], partner 0.25 µg/mL	0.94	0.906	0.878
[7], partner 0.0625 µg/mL	0.957	0.962	0.904
[7], partner 0.125 µg/mL	0.88	0.92	0.881
[7], partner 0.25 µg/mL	0.905	0.892	0.882
[8], partner 0.5 µg/mL	≥ 1	≥ 1	≥ 1
[8], partner 1 µg/mL	≥ 1	≥ 1	≥ 1
[8], partner 2 µg/mL	0.948	0.926	0.951

CCN(CC)CCOC(=O)c1ccc(N)cc1 [Procaine] + CN1C2=CC=CC=C2N=C3C1=CC=CC3=O [Pyocyanin]
Details	Bliss interaction score
[1]	0.148
[2]	-0.0817
[3]	-0.0724
[4]	-0.0685

fitness
Details	first compound 85.5 µg/mL	first compound 171 µg/mL	first compound 342 µg/mL
[5], partner 1.25 µg/mL	0.864	0.89	0.798
[5], partner 2.5 µg/mL	0.782	0.748	0.776
[5], partner 5 µg/mL	–	0.448	–
[6], partner 1.25 µg/mL	0.938	≥ 1	≥ 1
[6], partner 2.5 µg/mL	0.854	0.986	≥ 1
[6], partner 5 µg/mL	0.54	0.591	0.56
[7], partner 1.25 µg/mL	0.871	0.869	0.848
[7], partner 2.5 µg/mL	0.846	0.863	0.748
[7], partner 5 µg/mL	0.683	0.669	0.647
[8], partner 0.325 µg/mL	≥ 1	0.998	0.991
[8], partner 0.65 µg/mL	0.975	≥ 1	0.966

[8], partner 1.3 µg/mL, one replicate
Details	fitness
first compound 85.5 µg/mL	0.433
first compound 171 µg/mL	0.585
first compound 342 µg/mL	0.524
